Data reported in article PMC3038857, “Using Nuclear Receptor Activity to Stratify Hepatocarcinogens” (PLoS ONE, 2011).

Tests used:
Mouse Liver [1] = details: chronic study, mouse liver; ref ToxRefDB; cited from earlier work
Rat Liver [2] = details: chronic study, rat liver; ref ToxRefDB; cited from earlier work
LXRa (NR1H3) = biological target: T1, LXRa (NR1H3) (Homo sapiens, UniProt Q13133); experiment: ATG_LXRa_TRANS: Factorial reporter gene assay (HepG2); assay type: cell-based; details: HepG2 reporter
T1 construct: expressed in transfected cells; host or cells: HepG2
T1 sequence (Q13133 1-447): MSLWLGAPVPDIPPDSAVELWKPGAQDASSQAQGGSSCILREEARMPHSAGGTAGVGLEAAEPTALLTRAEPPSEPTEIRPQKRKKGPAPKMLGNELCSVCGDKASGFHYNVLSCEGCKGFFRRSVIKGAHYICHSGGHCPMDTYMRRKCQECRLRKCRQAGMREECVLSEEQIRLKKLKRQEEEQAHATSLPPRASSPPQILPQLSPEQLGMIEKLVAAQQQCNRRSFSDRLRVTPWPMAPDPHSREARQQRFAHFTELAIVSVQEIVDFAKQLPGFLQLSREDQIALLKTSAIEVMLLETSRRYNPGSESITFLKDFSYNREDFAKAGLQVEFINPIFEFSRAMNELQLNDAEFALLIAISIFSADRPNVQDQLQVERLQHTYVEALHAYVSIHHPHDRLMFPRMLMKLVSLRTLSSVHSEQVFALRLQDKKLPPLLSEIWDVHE
Description: A multiple reporter transcription unit (MRTU) library consisting of 48 transcription factor binding sites was transfected into the HepG2 human liver hepatoma cell line. In addition to the cis-acting reporter genes (CIS), a modification of the approach was used to generate a trans-system (TRANS) with a mammalian one-hybrid assay consisting of an additional 25 MRTU library reporting the activity of nuclear receptor super-family members. […] These assays were performed by Attagene Inc. (Morrisville NC) under contract to EPA.
In addition to the cis-acting reporter genes (CIS), a modification of the approach was used to generate a trans-system (TRANS) with a mammalian one-hybrid assay consisting of an additional 25 MRTU library reporting the activity of nuclear receptor super-family members. […] Chemicals were then tested in the CIS and TRANS assays at seven concentrations starting at the MTC and followed by three-fold serial dilutions. These assays were performed by Attagene Inc. (Morrisville NC) under contract to EPA. Detailed description of the methods, data and analysis methods for this dataset will be presented in a separate publication.

PXR (NR1I2) = biological target: T2, PXR (NR1I2) (Homo sapiens, UniProt O75469); experiment: ATG_PXRE_CIS: Factorial reporter gene assay (HepG2); assay type: cell-based; set-up: endogenous in cells; host or cells: HepG2; details: HepG2 reporter
T2 sequence (O75469 1-434): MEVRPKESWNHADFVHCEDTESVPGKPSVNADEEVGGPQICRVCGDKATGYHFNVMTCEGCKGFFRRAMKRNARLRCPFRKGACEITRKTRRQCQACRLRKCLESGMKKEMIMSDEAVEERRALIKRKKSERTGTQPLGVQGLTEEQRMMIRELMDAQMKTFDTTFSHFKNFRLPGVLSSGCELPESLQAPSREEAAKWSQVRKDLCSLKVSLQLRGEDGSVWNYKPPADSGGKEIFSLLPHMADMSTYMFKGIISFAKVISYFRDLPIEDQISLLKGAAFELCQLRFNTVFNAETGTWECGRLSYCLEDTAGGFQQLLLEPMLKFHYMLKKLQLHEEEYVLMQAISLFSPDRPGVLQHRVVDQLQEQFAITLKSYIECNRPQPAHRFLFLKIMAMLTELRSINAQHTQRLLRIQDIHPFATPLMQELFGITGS
Procedure, shortened: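 Seven concentrations per chemical, three-fold dilutions down from the MTC, were tested in HepG2 hepatoma cells. Those cells carried a multiple reporter transcription unit library, read either as cis transcription-factor-site reporters or as a trans mammalian one-hybrid panel for nuclear receptors.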

Mouse Liver [3] = details: chronic study, mouse liver; ref ToxRefDB; cited from earlier work; remark: listed apart in the source
Rat Liver [4] = details: chronic study, rat liver; ref ToxRefDB; cited from earlier work; remark: listed apart in the source
HMGCS2 = experiment: CLZD_HMGCS2: Change in expression of HMGCS2 (primary human hepatocytes); assay type: cell-based; details: 24 hr
Description: This is a collection of multiplexed gene expression assays focused on Phase I and II xenobiotic metabolizing enzymes and transporters. Human primary cell cultures were treated with chemicals at 5 concentrations (0.004-40 [drawing 42] M) for 6, 24 and 48 hr. Concentration- and time-response profiles of chemicals were measured by the expression of key nuclear receptor target genes, activities of CYP1A enzymes (EROD), and cell morphology. Fourteen gene targets were monitored by quantitative nuclease protection assay including: six representative cytochrome P-450 genes, four hepatic transporters, three Phase II conjugating enzymes, and one endogenous metabolism gene involved in cholesterol synthesis. The target genes associated with nuclear receptor pathways are as follows: [drawing 43] and [drawing 44] with [drawing 45]; [drawing 46] , [drawing 47] , [drawing 48] , [drawing 49] , [drawing 50] and [drawing 51] with [drawing 52]; [drawing 53] , [drawing 54] , [drawing 55] and [drawing 56] with [drawing 57]; [drawing 58] with [drawing 59]; and [drawing 60] with [drawing 61] . Assays were run in primary human hepatocyte cultures by CellzDirect Invitrogen Inc. (Durham, NC), in collaboration with EPA.
Multiplexed Gene Expression in Human Primary Hepatocytes: This is a collection of multiplexed gene expression assays focused on Phase I and II metabolic enzymes and transporters. […] Fourteen gene targets were monitored by quantitative nuclease protection assay: six representative cytochrome P450 genes, four hepatic transporters, three Phase II conjugating enzymes, and one endogenous metabolism gene involved in cholesterol synthesis. Cells were exposed at 5 concentrations (0.004-40 µM) for 6, 24 or 48 hr. Gene targets are sentinels for five nuclear receptor signaling pathways: AhR, CAR, PXR, FXR, and PPARα. All gene are associated with nuclear receptor pathways: CYP1A1 and CYP1A2 with AHR; ABCB1, ABCG2, CYP2B6, CYP2C9, CYP2C19 and UGT1A1 with CAR; CYP3A4, GSTA2, SLCO1B1 and SULT2A1 with PXR; HMGCS2 with PPARA; and ABCB11 with FXR. […] Detailed description of the methods, data and analysis methods for this dataset will be presented in a separate publication.

Rat Liver [5] = details: chronic study, rat liver; ref ToxRefDB; cited from earlier work; remark: listed apart in the source
Mouse Liver [6] = details: chronic study, mouse liver; ref ToxRefDB; cited from earlier work; remark: listed apart in the source
CYP3A4 = experiment: CLZD_CYP3A4: Change in expression of CYP3A4 (primary human hepatocytes); assay type: cell-based; details: 24 hr
Procedure, shortened: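 Primary human hepatocyte cultures were exposed to test chemicals at 5 concentrations (0.004-40 µM) for 6, 24 or 48 hr.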

LXRa (NR1H2) = experiment: NCGC_LXR_Agonist: GAL4 BLAM Reporter gene assay: LXRa; assay type: cell-based, human; details: agonist mode
Description: These assays measure binding constants and enzyme inhibition values for nuclear receptors. The targets include [drawing 67] , [drawing 68] , [drawing 69] , [drawing 70] , [drawing 71] , [drawing 72] , [drawing 73] , [drawing 74] , [drawing 75] and [drawing 76] . Each of the nuclear receptor targets was measured in agonist mode. Assays were run at the NIH Chemical Genomics Center (Rockville, MD).
Cell-based HTS Assays: These assays measuring binding constants and enzyme inhibition values for nuclear receptors. The targets include AR, ER, FXR, LXR, PPARα, PPARδ, PPARγ, RXRα, RXRβ and PXR. Each of the nuclear receptor targets was measured in both agonist and antagonist mode, but the antagonist data is still undergoing analysis due to possible interference between cytotoxicity and assay activity, so antagonist mode data were not used in the present analysis. Assays were run at the NIH Chemical Genomics Center (Rockville, MD) as part of the Tox21 collaboration. […] The R^2 was required to be ≥0.5. Values where only the highest concentration exceeded 50% activity were excluded to eliminate weak or false positives. Detailed description of the methods, data and analysis methods for this dataset will be presented in a separate publication.

SMILES: CCOC(=O)C(C)Oc1ccc(Oc2cnc3cc(Cl)ccc3n2)cc1 (stereo not shown) [r279]
- CHR_Mouse_Liver_1_AnyLesion (Mouse Liver [1]): 6
- CHR_Rat_Liver_2_PreneoplasticLesion (Rat Liver [2]): 0
- ATG_LXRa_TRANS (LXRa (NR1H3)): 4.824
- ATG_PXRE_CIS (PXR (NR1I2)): 4.523
- CHR_Mouse_Liver_2_PreneoplasticLesion (Mouse Liver [3]): 6
- CHR_Rat_Liver_1_AnyLesion (Rat Liver [4]): 6
- CLZD_HMGCS2_24 (HMGCS2): 5.409
- CHR_Rat_Liver_3_NeoplasticLesion (Rat Liver [5]): 0
- CHR_Mouse_Liver_3_NeoplasticLesion (Mouse Liver [6]): 6

SMILES: COc1cc(OC)nc(Sc2cccc(Cl)c2C(=O)[O-])n1.[Na+] [r275]
- CHR_Mouse_Liver_1_AnyLesion (Mouse Liver [1]): 6
- CHR_Rat_Liver_2_PreneoplasticLesion (Rat Liver [2]): 6
- CHR_Mouse_Liver_2_PreneoplasticLesion (Mouse Liver [3]): 6
- CHR_Rat_Liver_1_AnyLesion (Rat Liver [4]): 6
- CLZD_HMGCS2_24 (HMGCS2): 5.29
- CLZD_CYP3A4_24 (CYP3A4): 4.874
- CHR_Rat_Liver_3_NeoplasticLesion (Rat Liver [5]): 0
- CHR_Mouse_Liver_3_NeoplasticLesion (Mouse Liver [6]): 6

SMILES: CCCOc1nn(C(=O)[N-]S(=O)(=O)c2ccccc2C(=O)OC)c(=O)n1C.[Na+] [r264]
- CHR_Rat_Liver_2_PreneoplasticLesion (Rat Liver [2]): 0
- NCGC_LXR_Agonist (LXRa (NR1H2)): 4.648
- ATG_PXRE_CIS (PXR (NR1I2)): 4.252
- CHR_Rat_Liver_1_AnyLesion (Rat Liver [4]): 0
- CHR_Rat_Liver_3_NeoplasticLesion (Rat Liver [5]): 0
